From ChEMBL document CHEMBL4177741, “NOTA analogue: A first dithiocarbamate inhibitor of metallo-β-lactamases” (Bioorg Med Chem Lett, 2018)
Values after ≈ are worked out from the molar mass of the structure shown. Values belong to the molecule of their own block, whether it stands above or below them. Active and inactive are the calls of the source. The rule behind the calls is not given here.

Key:
Citrobacter freundii [1] = test: Inhibition of NDM1 in Citrobacter freundii clinical isolates assessed as potentiation of meropenem-induced antibacterial activity by measuring meropenem MIC at 32 ug/ml incubated for 16 to 18 hrs by broth microdilution method
[2] = biological target: Beta-lactamase NDM-1 (Escherichia coli) (UniProt E5KIY2); test: Inhibition of NDM1 in Escherichia coli assessed as potentiation of 0.125 ug/ml meropenem-induced antibacterial activity by measuring bacterial count at 32 ug/ml incubated for 3 hrs by time-dependent killing assay (reference value: […])
[3] = biological target: Beta-lactamase NDM-1 (Escherichia coli) (UniProt E5KIY2)
[4] = biological target: Beta-lactamase NDM-1 (Escherichia coli) (UniProt E5KIY2); remark: listed apart in the source
Escherichia coli [5] = test: Effect on cell growth of Escherichia coli expressing NDM1 incubated for 16 to 18 hrs by CLSI protocol based method; format: organism-based
[6] = biological target: Metallo-beta-lactamase type 2 (Klebsiella pneumoniae) (UniProt C7C422)
Escherichia coli [7] = test: Effect on cell growth of Escherichia coli expressing NDM1 assessed as cell growth level; format: organism-based
Proteus mirabilis [8] = test: (§1) Inhibition of NDM1 in Proteus mirabilis clinical isolates assessed as potentiation of meropenem-induced antibacterial activity by measuring meropenem MIC at 32 ug/ml incubated for 16 to 18 hrs by broth microdilution method
Beta-lactamase NDM-1 [9] = biological target: T1, Beta-lactamase NDM-1 (Escherichia coli, UniProt E5KIY2)
Description: Non-competitive inhibition of NDM1 in Escherichia coli BL21 (DE3) using MEPM substrate incubated for 15 mins by UV spectroscopy based L-B plot

[10] = biological target: Metallo-beta-lactamase type 2 (Klebsiella pneumoniae) (UniProt C7C422); remark: listed apart in the source
Beta-lactamase NDM-1 [11] = biological target: T1, Beta-lactamase NDM-1; remark: listed apart in the source
Description: Inhibition of NDM1 in Escherichia coli BL21 (DE3) using MEPM substrate incubated for 15 mins by UV spectroscopy

[12] = biological target: Beta-lactamase NDM-1 (Escherichia coli) (UniProt E5KIY2); remark: listed apart in the source
Proteus mirabilis [13] = test: as §1; remark: listed apart in the source
Proteus mirabilis [14] = test: as §1; remark: listed apart in the source
[15] = biological target: Beta-lactamase NDM-1 (Escherichia coli) (UniProt E5KIY2); remark: listed apart in the source
Escherichia coli [16] = test: Potentiation of meropenem-induced antibacterial activity in Escherichia coli expressing NDM1 assessed as meropenem inhibition zone incubated for 16 to 18 hrs by CLSI protocol based disc diffusion method (reference value: 10.76 mm); format: functional
Proteus mirabilis [17] = settings: 64 ug/ml
Description: (§2) Inhibition of NDM1 in Proteus mirabilis clinical isolates assessed as potentiation of meropenem-induced antibacterial activity by measuring meropenem MIC at 64 ug/ml incubated for 16 to 18 hrs by broth microdilution method

Erythrocyte = test: Hemolytic activity in sheep RBCs at 10000 ug/ml incubated for 1 hr; format: ADME, cell-based, Ovis aries
Proteus mirabilis [18] = settings: 64 ug/ml; remark: listed apart in the source
Description: as §2

HeLa [19] = test: Cytotoxicity in human HeLa cells assessed as inhibition of cell growth at 128 ug/ml incubated for 24 hrs by calcein AM and propidium iodide staining based fluorescence microscopy
HeLa [20] = test: Cytotoxicity in human HeLa cells assessed as inhibition of cell growth at 64 ug/ml incubated for 24 hrs by calcein AM and propidium iodide staining based fluorescence microscopy
[21] = Cytotoxicity in human HeLa cells assessed as inhibition of cell growth at 1000 ug/ml incubated for 24 hrs by CCK8 assay; format: cell-based; settings: read-out: GI
Citrobacter freundii [22] = settings: 64 ug/ml
Description: Inhibition of NDM1 in Citrobacter freundii clinical isolates assessed as potentiation of meropenem-induced antibacterial activity by measuring meropenem MIC at 64 ug/ml incubated for 16 to 18 hrs by broth microdilution method

HeLa [23] = test: Cytotoxicity in human HeLa cells assessed as inhibition of cell growth at 0.1% incubated for 24 hrs by calcein AM and propidium iodide staining based fluorescence microscopy; format: functional

- MIC (Citrobacter freundii [1]): 0.06 µg/mL
- MIC [3]: < 0.03 µg/mL
- MIC [4]: 0.125 µg/mL (≈ 0.412 µM)
- MIC [6]: 2 µg/mL (≈ 6.59 µM)
- MIC (Proteus mirabilis [8]): 2 µg/mL
- Ki (Beta-lactamase NDM-1 [9]): 5110 nM
- MIC [10]: 1 µg/mL (≈ 3.3 µM)
- IC50 (Beta-lactamase NDM-1 [11]): 110 nM
- MIC [12]: 0.125 µg/mL (≈ 0.412 µM)
- MIC (Proteus mirabilis [13]): 0.5 µg/mL
- MIC (Proteus mirabilis [14]): 0.5 µg/mL
SMILES: O=C(O)CN1CCN(CC(=O)O)CCN(CC(=O)O)CC1
- Activity [2]: 10000 to 1e+06 CFU/mL
- MIC (Escherichia coli [5]): > 128 µg/mL
- Activity (Escherichia coli [7]): 90%

- IZ [15]: 21.7 mm
SMILES: O=C(O)CN(CCN(CC(=O)O)CC(=O)O)CC(=O)O

- MIC (Proteus mirabilis [17]): > 16 µg/mL
- MIC (Citrobacter freundii [1]): 4 µg/mL
- MIC (Proteus mirabilis [18]): 4 µg/mL
- MIC (Proteus mirabilis [8]): > 16 µg/mL
- MIC (Citrobacter freundii [22]): 0.5 µg/mL
- MIC (Proteus mirabilis [14]): 4 µg/mL
SMILES: S=C([S-])N1CCN(C(=S)[S-])CCN(C(=S)[S-])CC1.[Na+].[Na+].[Na+]
- inhibition zone (IZ) (Escherichia coli [16]): 15.9 mm
- Activity (Erythrocyte): Non-Toxic
- MIC (Escherichia coli [5]): > 128 µg/mL
- Activity (HeLa [19]): Non-Toxic
- Activity (HeLa [20]): Non-Toxic
- inhibition at 24 h, 1000 ug/ml [21]: 20%
- Activity (Escherichia coli [7]): 90%

SMILES: CC(C)(C)CC(C)(C)c1ccc(OCCOCCOCCOCCOCCOCCOCCO)cc1
- Activity (HeLa [23]): Active
